Test results from patent US20230042729A1, “PEPTIDE CONSTRUCTS AND COMPOSITIONS” (DIET4LIFE APS, priority 2019, published 2023).
No end group written: not given here.

Experiments:
murine intestinal cells = murine intestinal cells (Mus musculus, UniProt O88319); experiment: Ca2+ flux / calcium response assay (cell signaling activity); format: cell-based
Protocol: Ca^2+ Flux Assay/Calcium Response Assay:
Elevation of intracellular calcium level was measured using the fluorescent calcium chelating dye Fluo-4 AM (ThermoFischer Scientific, Denmark). Briefly, cells were grown as a monolayer in 96-well tissue culture plates (Sarstedt, Germany) to near confluence in appropriate growth medium as described in the cell culture section.
All test compounds were dissolved in water, and then diluted in 1×HBSS containing 25 mM HEPES (pH 7.4), 1% BSA and 2% ink. […]

[1] = Stability of peptides in serum, remaining activity read in intestinal cells; format: in vitro ADME, Bovine; settings: for Stability in serum (activity remaining): octapeptides, fraction of peptide activity left after 10 min of incubation in serum at 37° C. compared with undigested sample
Protocol: All peptides were incubated at 10^−5 M with Fetal Bovine Serum (FBS; final concentration of 66.7%) (Sigma Aldrich, Denmark) at 37° C. for 3 hours. The peptide degradation was terminated using 1 M phosphoric acid (final 0.4 M, pH˜1.2) and neutralized to pH 7.2-7.4 with NaOH before testing activity in intestinal cells. As for small intestine homogenates, a zero degradation control was included for each peptide.
DC7-2, NT, DKPYIL and NT-(8-13) (final concentration of 10^−6 M) were incubated either with FBS or with 270× diluted intestinal homogenate at 37° C. for various time points with shaking. Degradation was stopped with 1 M phosphoric acid and the samples were subsequently neutralized and immediately tested with intestinal cells as described above. Control for zero degradation was included for each peptide as above.
(§1) The 20 hexapeptides with systematic N-terminal substitutions (X-KPYIL) (Schafer-N, Denmark) and NT (8-13) was incubated at 10^−6 M in either FBS for 10 minutes or with 270× diluted intestinal homogenate for 30 minutes at 37° C. with shaking. The degradation was stopped with 1 M phosphoric acid. Peptide solutions were neutralized with NaOH (pH 7.2-7.4), diluted and immediately tested for bioactivity using murine intestinal cells. Determination of EC50 for stimulation of cells allowed calculation of recovered peptide.

[2] = Stability of peptides in intestine homogenate, remaining activity read in intestinal cells; format: in vitro ADME, mice; settings: for Stability in intestine (activity remaining): octapeptides, % activity left after 30 min incubation in intestine homogenate at 37° C.
Protocol: Small intestines from 20 Swiss-Webster males were homogenized in 350 ml Dulbecco's phosphate-buffered saline (PBS) (pH 7.4) (ThermoFischer Scientific, Denmark) with a IKA® basic 18 Ultra-Turrax tissue homogenizer set a speed 5 followed by filtration using 100 μm nylon mesh filter. Protein concentration was 6 mg/ml using the bicinconinic acid assay (ThermoFischer Scientific, Denmark) and bovine serum albumin as standard. The intestine homogenate was diluted 10 times in HBSS containing 25 mM HEPES (pH 7.4), and further diluted 30×, 90×, 270×, 810× or 2430× before incubation with peptides. All solutions were prewarmed to 37° C. before mixing with peptide solutions.
Peptides were incubated at 10^−5 M with dilutions of small intestine homogenate at 37° C. for 90 minutes with shaking. Reactions were stopped by addition of 1 M phosphoric acid (final 0.4 M, pH˜1.2). Each peptide incubation mix was then neutralized with NaOH to pH 7.2-7.4 and immediately tested for activity in intestinal cells. Control for zero degradation, i.e. addition of 1 M phosphoric acid prior to addition of intestine homogenate, was included for each peptide. […]
as §1

[3] = target: T1, trypsin inhibitor, T9128 from soybean (UniProt P01070)
T1 sequence: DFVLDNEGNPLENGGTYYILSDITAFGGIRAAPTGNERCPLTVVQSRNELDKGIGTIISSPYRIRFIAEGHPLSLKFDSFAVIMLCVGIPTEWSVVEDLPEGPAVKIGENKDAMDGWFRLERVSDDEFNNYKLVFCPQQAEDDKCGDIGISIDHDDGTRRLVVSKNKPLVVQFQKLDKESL

[4] = target: trypsin inhibitor T9253 from chicken egg white (UniProt P01005)
Sequence of trypsin inhibitor T9253 from chicken egg white (P01005 25-210): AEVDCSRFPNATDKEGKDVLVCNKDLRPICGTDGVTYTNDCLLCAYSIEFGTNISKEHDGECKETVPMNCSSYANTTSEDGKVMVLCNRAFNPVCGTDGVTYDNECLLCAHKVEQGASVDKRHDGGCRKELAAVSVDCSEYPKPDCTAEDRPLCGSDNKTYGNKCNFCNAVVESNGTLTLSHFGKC

Sequence of murine intestinal cells (O88319 whole entry): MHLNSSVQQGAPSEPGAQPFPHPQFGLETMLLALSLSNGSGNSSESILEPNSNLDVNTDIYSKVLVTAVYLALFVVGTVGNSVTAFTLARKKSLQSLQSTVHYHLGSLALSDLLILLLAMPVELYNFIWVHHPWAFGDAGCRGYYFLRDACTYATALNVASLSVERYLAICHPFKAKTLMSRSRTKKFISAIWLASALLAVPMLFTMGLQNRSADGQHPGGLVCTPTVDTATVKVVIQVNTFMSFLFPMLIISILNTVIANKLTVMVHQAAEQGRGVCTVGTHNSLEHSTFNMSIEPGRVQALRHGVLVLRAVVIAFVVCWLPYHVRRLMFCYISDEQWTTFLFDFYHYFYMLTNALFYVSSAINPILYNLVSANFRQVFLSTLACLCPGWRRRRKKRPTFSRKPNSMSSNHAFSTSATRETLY

| Compound | EC50 (murine intestinal cells) [nM] | other results |
| --- | --- | --- |
| CC[C@H](C)[C@H](NC(=O)[C@H](Cc1ccc(O)cc1)NC(=O)[C@@H]1CCCN1C(=O)[C@@H](N)CCCNC(=N)N)C(=O)N[C@@H](CC(C)C)C(=O)O [Peptide 36010, R PYIL] | 1.18 |  |
| ADKPYIL [Peptide 36016, A DKPYIL] | 3.52 |  |
| APYIL [Peptide 35996, A PYIL] | 11.8 |  |
| CDKPYIL [Peptide 36017, C DKPYIL] | 7.72 |  |
| CPYIL [Peptide 35997, C PYIL] | 69.9 |  |
| CSDKPYIL [Peptide 36037, C SDKPYIL] | 5.44 | Stability in serum (activity remaining) [1]: 0.0963; Stability in intestine (activity remaining) [2]: 14.0% |
| DDKPYIL [Peptide 36018, D DKPYIL] | 10.5 |  |
| DKPYIL [Peptide 35978, D KPYIL] |  | stability in serum compared to neurotensin (8-13) RRPYIL [1]: around 100 times; stability in intestine homogenate compared to neurotensin (8-13) RRPYIL [2]: 100-1000 × |
| DPYIL [Peptide 35998, D PYIL] | 158 |  |
| DSDKPYIL [Peptide 36038, D SDKPYIL] | 6.15 | Stability in serum (activity remaining) [1]: 0.0947; Stability in intestine (activity remaining) [2]: 29.9% |
| EDKPYIL [Peptide 36019, E DKPYIL] | 3.96 |  |
| EPYIL [Peptide 35999, E PYIL] | 102 |  |
| ESDKPYIL [Peptide 36039, E SDKPYIL] | 4.82 | Stability in serum (activity remaining) [1]: 0.0964; Stability in intestine (activity remaining) [2]: 23.0% |
| FDKPYIL [Peptide 36020, F DKPYIL] | 9.52 |  |
| FPYIL [Peptide 36000, F PYIL] | 19.5 |  |
| FSDKPYIL [Peptide 36040, F SDKPYIL] | 3.85 | Stability in serum (activity remaining) [1]: 0.0944; Stability in intestine (activity remaining) [2]: 3.4% |
| GDKPYIL [Peptide 36021, G DKPYIL] | 2.91 |  |
| GPYIL [Peptide 36001, G PYIL] | 17.4 |  |
| GSDKPYIL [Peptide 36041, G SDKPYIL] | 4.07 | Stability in serum (activity remaining) [1]: 0.0912; Stability in intestine (activity remaining) [2]: 10.3% |
| HDKPYIL [Peptide 36022, H DKPYIL] | 2.65 |  |
| HPYIL [Peptide 36002, H PYIL] | 35.6 |  |
| HSDKPYIL [Peptide 36042, H SDKPYIL] | 3.63 | Stability in serum (activity remaining) [1]: 0.0980; Stability in intestine (activity remaining) [2]: 6.4% |
| IDKPYIL [Peptide 36023, I DKPYIL] | 4.77 |  |
| IKPYIL [Peptide 35983, I KPYIL] | 0.24 |  |

| Compound | EC50 (murine intestinal cells) [nM] | other results |
| --- | --- | --- |
| IPYIL [Peptide 36003, 1 PYIL] | 23.8 |  |
| ISDKPYIL [Peptide 36043, I SDKPYIL] | 6.87 | Stability in serum (activity remaining) [1]: 0.0956; Stability in intestine (activity remaining) [2]: 6.0% |
| KDKPYIL [Peptide 36024, K DKPYIL] | 11.2 |  |
| KPYIL [Peptide 36004, K PYIL] | 7.71 |  |
| KSDKPYIL [Peptide 36044, K SDKPYIL] | 10.7 | Stability in serum (activity remaining) [1]: 0.0527; Stability in intestine (activity remaining) [2]: 6.6% |
| LDKPYIL [Peptide 36025, L DKPYIL] | 6.41 |  |
| LKPYIL [Peptide 35985, L KPYIL] | 0.33 |  |
| LPYIL [Peptide 36005, L PYIL] | 41 |  |
| LSDKPYIL [Peptide 36045, L SDKPYIL] | 8.06 | Stability in serum (activity remaining) [1]: 0.0917; Stability in intestine (activity remaining) [2]: 7.9% |
| MDKPYIL [Peptide 36026, M DKPYIL] | 6.08 |  |
| MKPYIL [Peptide 35986, M KPYIL] | 0.388 |  |
| MPYIL [Peptide 36006, M PYIL] | 16.2 |  |
| MSDKPYIL [Peptide 36046, M SDKPYIL] | 4.88 | Stability in serum (activity remaining) [1]: 0.0762; Stability in intestine (activity remaining) [2]: 3.8% |
| NDKPYIL [Peptide 36027, N DKPYIL] | 5.92 |  |
| NKPYIL [Peptide 35987, N KPYIL] | 0.5 |  |
| NPYIL [Peptide 36007, N PYIL] | 39.3 |  |
| NSDKPYIL [Peptide 36047, N SDKPYIL] | 4.41 | Stability in serum (activity remaining) [1]: 0.0872; Stability in intestine (activity remaining) [2]: 3.9% |
| PDKPYIL [Peptide 36028, P DKPYIL] | 4.67 |  |
| PKPYIL [Peptide 35988, P KPYIL] | 0.232 |  |
| PPYIL [Peptide 36008, P PYIL] | 9.61 |  |
| PSDKPYIL [Peptide 36048, P SDKPYIL] | 4.14 | Stability in serum (activity remaining) [1]: 0.0772; Stability in intestine (activity remaining) [2]: 4.6% |
| QDKPYIL [Peptide 36029, Q DKPYIL] | 4.97 |  |
| QKPYIL [Peptide 35989, Q KPYIL] | 0.378 |  |
| QPYIL [Peptide 36009, Q PYIL] | 20.5 |  |

| Compound | EC50 (murine intestinal cells) [nM] | other results |
| --- | --- | --- |
| QSDKPYIL [Peptide 36049, Q SDKPYIL] | 4.01 | Stability in serum (activity remaining) [1]: 0.0742; Stability in intestine (activity remaining) [2]: 8.8% |
| RDKPYIL [Peptide 36030, R DKPYIL] | 4.68 |  |
| RSDKPYIL [Peptide 36050, R SDKPYIL] | 4.01 | Stability in serum (activity remaining) [1]: 0.0735; Stability in intestine (activity remaining) [2]: 2.6% |
| SDKPYIL [Peptide 36031, S DKPYIL] | 5 |  |
| SKPYIL [Peptide 35991, S KPYIL] | 1.15 |  |
| SPYIL [Peptide 36011, S PYIL] | 22.5 |  |
| SSDKPYIL [Peptide 36051, S SDKPYIL] | 4.27 | Stability in serum (activity remaining) [1]: 0.0609; Stability in intestine (activity remaining) [2]: 19.5% |
| TDKPYIL [Peptide 36032, T DKPYIL] | 5.61 |  |
| TKPYIL [Peptide 35992, T KPYIL] | 1.16 |  |
| TPYIL [Peptide 36012, T PYIL] | 43.6 |  |
| TSDKPYIL [Peptide 36052, T SDKPYIL] | 5.63 | Stability in serum (activity remaining) [1]: 0.0535; Stability in intestine (activity remaining) [2]: 8.4% |
| VDKPYIL [Peptide 36033, V DKPYIL] | 4.94 |  |
| VKPYIL [Peptide 35993, V KPYIL] | 1.17 |  |
| VPYIL [Peptide 36013, V PYIL] | 37.8 |  |
| VSDKPYIL [Peptide 36053, V SDKPYIL] | 5.15 | Stability in serum (activity remaining) [1]: 0.0488; Stability in intestine (activity remaining) [2]: 5.6% |
| WDKPYIL [Peptide 36034, W DKPYIL] | 14.1 |  |
| WKPYIL [Peptide 35994, W KPYIL] | 5.58 |  |
| WSDKPYIL [Peptide 36054, W SDKPYIL] | 8.87 | Stability in serum (activity remaining) [1]: 0.0426; Stability in intestine (activity remaining) [2]: 3.6% |
| YDKPYIL [Peptide 36035, Y DKPYIL] | 6.83 |  |
| YKPYIL [Peptide 35995, Y KPYIL] | 3.34 |  |
| YPYIL [Peptide 36015, Y PYIL] | 140 |  |
| YSDKPYIL [Peptide 36055, Y SDKPYIL] | 5.92 | Stability in serum (activity remaining) [1]: 0.0491; Stability in intestine (activity remaining) [2]: 3.0% |
| trypsin in intestine homogenate (mouse small intestine) |  | trypsin activity (conversion of L-BAPA, slope of kinetic absorbance) [3]: Intestinal and pancreatic trypsin activity was inhibited in a dose-dependent manner by two specific trypsin inhibitors from soybean and chicken egg white, respectively; trypsin activity (conversion of L-BAPA, slope of kinetic absorbance) [4]: Intestinal and pancreatic trypsin activity was inhibited in a dose-dependent manner by two specific trypsin inhibitors from soybean and chicken egg white, respectively |
